Values of other authors as cited in article PMC13343212, “Hybrid Aminoferrocenes With Nitrate Esters for In Situ Peroxynitrite Generation: Complex Interplay Between Redox Chemistry, NO‐Donor Reactivity, and Aminoferrocene Activation Influences In Vitro Anticancer Activity” (Chembiochem, 2026).

Details: references for RP‐TLC calibration

c1ccc2cc3ccccc3cc2c1 [anthracene]
LogP of known references: 4.50

c1cc2cccc3c4cccc5cccc(c(c1)c23)c54 [perylene]
LogP of known references: 6.25
